Laboratory results published in PMC6606794, “Crosstalk of Cellulose and Mannan Perception Pathways Leads to Inhibition of Cellulase Production in Several Filamentous Fungi” (mBio, 2019).

Tests used:
[1] = biological target: T1, GH2-1 (Neurospora crassa, UniProt Q7SFE1); experiment: 4-nitrophenol release, absorbance at […] nm; assay type: biochemical; conditions: 50 mM KP buffer pH 5.5, 37 °C, 1 h, 0.1 µg enzyme, 80 µg substrate
T1 construct: gh2-1 cDNA in pGAPZ-B (EcoRI/XbaI), His-tagged, expressed in Pichia pastoris X-33, purified by IMAC from cell lysate; no predicted signal peptide
T1 sequence (Q7SFE1 1-854): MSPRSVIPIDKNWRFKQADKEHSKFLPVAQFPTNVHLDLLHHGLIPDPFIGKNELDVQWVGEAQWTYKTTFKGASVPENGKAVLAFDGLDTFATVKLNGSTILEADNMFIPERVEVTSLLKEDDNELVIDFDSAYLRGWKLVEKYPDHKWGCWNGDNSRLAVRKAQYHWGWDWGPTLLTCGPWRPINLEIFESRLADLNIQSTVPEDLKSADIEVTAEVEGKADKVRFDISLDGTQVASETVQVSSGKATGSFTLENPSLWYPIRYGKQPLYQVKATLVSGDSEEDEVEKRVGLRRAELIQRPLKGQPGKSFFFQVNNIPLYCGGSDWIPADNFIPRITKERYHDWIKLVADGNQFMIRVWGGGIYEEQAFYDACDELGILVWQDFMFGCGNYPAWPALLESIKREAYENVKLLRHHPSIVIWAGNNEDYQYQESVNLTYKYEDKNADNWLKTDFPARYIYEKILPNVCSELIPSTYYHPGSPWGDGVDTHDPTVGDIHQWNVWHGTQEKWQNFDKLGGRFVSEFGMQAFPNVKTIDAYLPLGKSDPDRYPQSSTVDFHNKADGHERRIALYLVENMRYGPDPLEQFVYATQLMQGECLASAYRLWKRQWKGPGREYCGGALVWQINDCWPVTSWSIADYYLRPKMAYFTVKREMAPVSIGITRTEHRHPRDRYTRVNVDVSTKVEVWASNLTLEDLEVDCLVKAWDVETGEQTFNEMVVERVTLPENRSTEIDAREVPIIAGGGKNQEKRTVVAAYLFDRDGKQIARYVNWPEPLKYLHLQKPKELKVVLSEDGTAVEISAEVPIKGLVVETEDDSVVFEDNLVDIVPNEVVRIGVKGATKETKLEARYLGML

[2] = biological target: T2, CDT-1 (Neurospora crassa, UniProt Q7SCU1); experiment: uptake by yeast expressing CDT-1, residual sugar by HPAEC-PAD; assay type: cell-based; conditions: 100 µM sugar, 30 min, over empty-vector background
T2 construct: pRS316-CDT1 expressed in Saccharomyces cerevisiae D452-2
T2 sequence (Q7SCU1 1-579): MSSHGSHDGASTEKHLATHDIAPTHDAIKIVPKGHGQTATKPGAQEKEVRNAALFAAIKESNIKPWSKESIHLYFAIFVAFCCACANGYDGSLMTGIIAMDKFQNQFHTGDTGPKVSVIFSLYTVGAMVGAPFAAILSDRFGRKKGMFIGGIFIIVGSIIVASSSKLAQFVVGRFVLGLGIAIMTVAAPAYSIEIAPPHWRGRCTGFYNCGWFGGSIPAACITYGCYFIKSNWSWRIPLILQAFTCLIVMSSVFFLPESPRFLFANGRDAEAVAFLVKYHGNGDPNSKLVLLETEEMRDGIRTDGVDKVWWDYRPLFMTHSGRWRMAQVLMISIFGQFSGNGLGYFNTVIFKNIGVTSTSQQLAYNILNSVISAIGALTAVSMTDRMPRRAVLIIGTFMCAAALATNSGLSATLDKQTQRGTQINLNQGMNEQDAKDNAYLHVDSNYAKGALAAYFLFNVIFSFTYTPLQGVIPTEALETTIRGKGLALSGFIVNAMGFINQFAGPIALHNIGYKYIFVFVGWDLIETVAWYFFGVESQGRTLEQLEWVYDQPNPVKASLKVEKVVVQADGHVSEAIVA

[3] = biological target: T3, CDT-2 (Neurospora crassa, UniProt Q7SD12); experiment: uptake by yeast expressing CDT-2, residual sugar by HPAEC-PAD; assay type: cell-based; conditions: 100 µM sugar, 30 min
T3 construct: pRS316-CDT2 expressed in Saccharomyces cerevisiae D452-2
T3 sequence (Q7SD12 1-525): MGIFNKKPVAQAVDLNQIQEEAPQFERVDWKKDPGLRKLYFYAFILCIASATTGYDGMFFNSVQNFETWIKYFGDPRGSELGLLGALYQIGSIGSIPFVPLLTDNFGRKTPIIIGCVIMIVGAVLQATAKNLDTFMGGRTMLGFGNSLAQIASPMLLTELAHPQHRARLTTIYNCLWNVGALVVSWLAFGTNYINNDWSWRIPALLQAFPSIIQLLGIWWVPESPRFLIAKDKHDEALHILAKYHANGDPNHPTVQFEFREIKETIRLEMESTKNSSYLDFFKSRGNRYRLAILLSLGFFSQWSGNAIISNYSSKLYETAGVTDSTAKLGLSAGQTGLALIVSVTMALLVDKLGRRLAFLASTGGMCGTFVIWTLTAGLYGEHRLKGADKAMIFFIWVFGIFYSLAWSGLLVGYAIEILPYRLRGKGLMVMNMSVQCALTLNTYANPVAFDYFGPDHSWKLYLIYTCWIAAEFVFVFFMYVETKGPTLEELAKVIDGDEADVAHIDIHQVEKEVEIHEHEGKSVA

Row | SMILES | 4-nitrophenol release, absorbance at 405 nm [1] | % remaining in supernatant ([2]; competes with mannobiose) | uptake by yeast expressing CDT-2, residual sugar by HPAEC-PAD [3] | % remaining in supernatant ([2]; competes with cellobiose)
1 | O=[N+]([O-])c1ccc(O[C@@H]2O[C@H](CO)[C@@H](O)[C@H](O)[C@@H]2O)cc1 [ρNP-β-Man, 4-nitrophenyl-β-D-mannopyranoside] | The purified enzyme showed strong activity on ρNP-β-D-mannopyranoside with high specificity | – | – | –
2 | OC[C@H]1O[C@@H](O[C@H]2[C@H](O)[C@@H](O)C(O)O[C@@H]2CO)[C@H](O)[C@@H](O)[C@@H]1O (some centres unmarked) [CB, cellobiose] | – | ~ 40% | not only cellobiose was imported by both S. cerevisiae strains, but also mannobiose | –
3 | OC[C@H]1O[C@@H](O[C@H]2[C@H](O)[C@H](O)C(O)O[C@@H]2CO)[C@@H](O)[C@@H](O)[C@@H]1O (some centres unmarked) [MB, mannobiose] | – | – | not only cellobiose was imported by both S. cerevisiae strains, but also mannobiose | ~ 18%
